Experimental data published in ChEMBL document CHEMBL5608246, “Membrane-Targeting Amphiphilic Honokiol Derivatives Containing an Oxazole Moiety as Potential Antibacterials against Methicillin-Resistant Staphylococcus aureus” (J Med Chem, 2024).
Activity calls are given as the source filed them. No cut-off for these calls is given here.

Legend:
[1] = Toxicity in Kunming mouse skin abscess model infected with methicillin resistant Staphylococcus aureus assessed as heart damage at 5 mg/kg, sc measured after 2 hrs by H and E staining based assay; assay type: organism-based; details: in vivo
[2] = Toxicity in Kunming mouse skin abscess model infected with methicillin resistant Staphylococcus aureus assessed as spleen damage at 5 mg/kg, sc measured after 2 hrs by H and E staining based assay; assay type: organism-based; details: in vivo
[3] = test system: Staphylococcus aureus; test: Antibacterial activity against methicillin resistant Staphylococcus aureus 20 infected in Kunming mouse skin abscess model assessed as reduction in IL-6 level at 5 mg/kg, sc measured after 2 hrs by ELISA; assay type: functional, organism-based
[4] = Toxicity in Kunming mouse skin abscess model infected with methicillin resistant Staphylococcus aureus assessed as lungs damage at 5 mg/kg, sc measured after 2 hrs by H and E staining based assay; assay type: organism-based; details: in vivo
[5] = Toxicity in Kunming mouse skin abscess model infected with methicillin resistant Staphylococcus aureus assessed as kidneys damage at 5 mg/kg, sc measured after 2 hrs by H and E staining based assay; assay type: organism-based; details: in vivo
[6] = Toxicity in Kunming mouse skin abscess model infected with methicillin resistant Staphylococcus aureus assessed as liver damage at 5 mg/kg, sc measured after 2 hrs by H and E staining based assay; assay type: organism-based; details: in vivo
[7] = test system: Staphylococcus aureus; test: Antibacterial activity against methicillin resistant Staphylococcus aureus 20 infected in Kunming mouse skin abscess model assessed as reduction in inflammatory cells in infection sites at 5 mg/kg, sc measured after 2 hrs; assay type: functional, organism-based
[8] = test system: Staphylococcus aureus; test: Antibacterial activity against methicillin resistant Staphylococcus aureus 20 infected in Kunming mouse skin abscess model assessed as reduction in bacterial load at 5 mg/kg, sc measured after 2 hrs; assay type: functional; parameters: scale not given: the % may be the effect or the level left
[9] = test system: Staphylococcus aureus; test: Antibacterial activity against methicillin resistant Staphylococcus aureus 20 infected in Kunming mouse skin abscess model assessed as reduction in TNF-alpha level at 5 mg/kg, sc measured after 2 hrs by ELISA; assay type: functional, organism-based
[10] = test system: Staphylococcus aureus; test: Bactericidal activity against Staphylococcus aureus ATCC 29213 at 8 times MIC within 8 hrs by time kill assay; assay type: functional, organism-based

**Q.** For CN[C@H](CC(C)C)C(=O)N[C@H]1C(=O)N[C@@H](CC(N)=O)C(=O)N[C@H]2C(=O)N[C@H]3C(=O)N[C@H](C(=O)N[C@H](C(=O)O)c4cc(O)cc(O)c4-c4cc3ccc4O)[C@H](O)c3ccc(c(Cl)c3)Oc3cc2cc(c3O[C@@H]2O[C@H](CO)[C@@H](O)[C@H](O)[C@H]2O[C@H]2C[C@](C)(N)[C@H](O)[C@H](C)O2)Oc2ccc(cc2Cl)[C@H]1O [VANCOMYCIN], which Activity [1] is on record?
**A.** Non-Toxic

**Q.** And the Activity [2]?
**A.** Non-Toxic

**Q.** What about the Activity [3] of the same molecule?
**A.** Active

**Q.** And the Activity [4]?
**A.** Non-Toxic

**Q.** What about the Activity [5] of the same molecule?
**A.** Non-Toxic

**Q.** And the Activity [6]?
**A.** Non-Toxic

**Q.** What about the Activity [7] of the same molecule?
**A.** Active

**Q.** And the Activity [8]?
**A.** 95.62%

**Q.** What about the Activity [9] of the same molecule?
**A.** Active

**Q.** And the Activity [10]?
**A.** inactive
